# Laboratory results taken from patent US20140221490A1, “METHODS OF TREATING PAIN” (Hospira, Inc., priority 2011, published 2014).
# Values joined by “and” are separate entries in the source; they are usually repeats but may differ in a detail not shown here. Equal entries are not always repeated.
# Columns and labels:
# [1] = test system: acute moderate to severe pain after abdominal or pelvic surgery; test: Multiple-dose randomized double-blind active- and placebo-controlled trial after abdominal or pelvic surgery: efficacy (SPID, pain relief, rescue morphine, patient global evaluation); assay type: in vivo, human
# Method: A 331 multicenter, multiple-dose, multiple-day, randomized, double-blind, parallel-group study was conducted on patients who had undergone abdominal or pelvic surgery. Patients were randomly assigned to 18.75 mg of diclofenac, 37.5 mg of diclofenac, 30 mg ketorolac, or placebo (1:1:1:1 ratio). The diclofenac formulation was Dyloject™. The patients selected for the study had moderate to severe pain within 6 hours postoperatively, defined as pain intensity of at least 50 mm on a 0-100 VAS.
# At 16 U.S. sites, adults 18-65 years old were screened if they were scheduled for abdominal or pelvic surgery within 2 weeks. Key inclusion criteria were moderate-to-severe postoperative pain, defined as intensity≧50 mm on a 0-100 mm visual analog scale (VAS) within 6 hours after surgery, and weight>50 kg. Exclusion criteria were applied to the preoperative, intraoperative, and postoperative periods. Key preoperative exclusion criteria were a history of chronic disease or severe asthma, a recent (≦6 months) cardiovascular event or clinically-significant abnormal electrocardiogram (ECG) at screening, consumption of aspirin (except <325 mg/day for antiplatelet cardiac protection), opioids, other NSAIDs, other common analgesics, major and minor tranquilizers, or antihistamines≦24 hours before study drug initiation (except if administered during surgery), consumption of a monoamine oxidase inhibitor, tryptophan, carbamazepine, or valproate≦2 weeks before baseline, any clinically-significant laboratory abnormality, and previous or present peptic ulceration, gastrointestinal (GI) bleeding, or any bleeding diathesis. In addition, long-acting NSAIDs or COX-2 inhibitors were to be discontinued 3 days before surgery. Subjects were also excluded in the event of a known allergy to diclofenac, NSAIDs, morphine, anesthetics, or any excipient of the study preparation, receipt of any other investigational medication within 3 months prior to administration of the study drug, known or suspected alcohol or drug abuse, and unwillingness to remain in the clinical research center for 2 nights or return within 5-9 days for a safety follow-up visit. Female subjects with a positive pregnancy test within 24 hours of surgery or who were lactating at screening were also excluded. Intraoperative exclusion criteria were subcostal incision during surgery and concomitant use of NSAIDs or acetaminophen (other intraoperative medications were not restricted). Subjects with abnormal postoperative baseline ECG were excluded from study participation. In addition, patient-controlled analgesia (PCA) was not permitted before or during study drug dosing. Nitrous oxide and very short-acting barbiturates or benzodiazepines were allowed, provided that there was a ≧1.5-hour washout period before study drug administration, to avoid residual effects on pain intensity assessments. […] Postoperative regional anesthesia was not allowed.
# This was a multicenter, multiple-dose, multiple-day, randomized, double-blind, active- and placebo-controlled, parallel-group phase 3 study. […] Assignments were made according to a computer-generated random-number code, and clinical staff and patients were blinded to study drug assignment. The first dose of study medication (1 mL IV bolus) was received by patients in all treatment arms within this first 6-hour period (Table 4).
# Administration of the first dose of study drug was taken as time 0, and all subsequent dosing and evaluation time points were in relation to time of first study drug dose. Subsequent injections were received every 6 hours until discharge or until patient withdrawal/discontinuation from the study, due either to an adverse event (AE), inadequate pain control, noncompliance with the study protocol, or at the investigator's discretion. […]
# [2] = test system: patients after orthopedic surgery; test: Orthopedic surgery trial: safety (adverse events); assay type: in vivo, human
# Method: The diclofenac formulation was Dyloject™. […] Adverse events (adverse effects) were recorded between surgery and randomization, not just after baseline, in order to distinguish treatment-emergent adverse events.
# Those who remained at the site longer assessed their pain every 3 hours until discharged. […] Adverse events (AEs) were recorded between surgery and randomization, not just after baseline, in order to distinguish treatment-emergent AEs.
# [3] = diclofenac n = 145, ketorolac n = 60
smiles,measurement,setting,value
"O=C(c1ccccc1)c1ccc2n1CCC2C(=O)O (stereo not shown) [Ketorolac, ketorolac tromethamine]","Cumulative Amount of Rescue Medication, Mean (SD)","[1]; 0 to 24 hours, 30 mg (N = 82)",6.7 (7.74) mg
same,Opioid sparing vs. placebo,"[1]; 0 to 24 hours, 30 mg (N = 82)",40%
same,"Cumulative Amount of Rescue Medication, Mean (SD)","[1]; 0 to 48 hours, 30 mg (N = 82)",8.5 (10.00) mg
same,Opioid sparing vs. placebo,"[1]; 0 to 48 hours, 30 mg (N = 82)",46%
same,"Cumulative Amount of Rescue Medication, Mean (SD)","[1]; 0 to 72 hours, 30 mg (N = 82)",8.5 (10.04) mg
same,Opioid sparing vs. placebo,"[1]; 0 to 72 hours, 30 mg (N = 82)",47%
same,"Cumulative Amount of Rescue Medication, Mean (SD)","[1]; 0 to 72 hours, 30 mg (N = 82), listed as ketorolac",8.5 mg
same,"Sum of the Pain Intensity Differences Over 0-48 Hours, Mean",[1]; 30 mg (N = 82),1583.2 mm·hours
same,patients with at least a 30% reduction in pain intensity,"[1]; at 45 minutes after study drug initiation, 30 mg",57%
same,patients with ≧30% reduction in pain intensity,"[1]; during the first 6-hour dosing period, 30 mg",76.8%
same,Acute Renal Failure/Renal Insufficiency,[2]; [3],0 n (%)
same,Acute Tubular Necrosis,[2]; [3],0 n (%)
same,Anemia,[2]; [3],9 (15.0%) n (%)
same,Blood creatine phosphokinase (CPK) increase,[2]; [3],8 (13.3%) n (%)
same,Constipation,[2]; [3],6 (10.0%) n (%)
same,Contusion,[2]; [3],2 (3.3%) n (%)
same,Dizziness,[2]; [3],5 (8.3%) n (%)
same,"Dysuria (burning, difficulty urinating)",[2]; [3],1 (1.7%) n (%)
same,Epistaxis,[2]; [3],0 n (%)
same,Fever/increase body temp.,[2]; [3],5 (8.3%) n (%)
same,Nausea,[2]; [3],18 (30.0%) n (%)
same,Total Bleeding related adverse events,[2]; [3],13 (21.7%) n (%)
same,Total GI-Related Adverse Events,[2]; [3],24 (40.0%) n (%)
same,Total Renal-Related Adverse Events,[2]; [3],1 (1.7%) n (%)
same,Urinary Retention,[2]; [3],0 n (%)
same,Vomiting,[2]; [3],6 (10.0%) n (%)
same,incidence of bleeding-related adverse effects,[2]; in vivo,23% and 22%
same,serious cardiovascular event: congestive heart failure,"[2]; one of 60 patients, not considered treatment-related",1.7%
